Legend:
[1] = tested on: CWR22rv-1 cells; experiment: CWR22rv-1 prostate cancer cell death (propidium iodide, FACS); format: cell-based, human
Description: CWR22Rv1 cells (ATCC, Manassas, Va.) were seeded in 6 well tissue culture plate at density of 300,000 cells/well and maintained in RPMI 1640 (Mediatech, Herndon, Va.) containing 10% fetal bovine serum, 2.5 mM L-glutamine, and penicillin-streptomycin (100 IU/ml and 100 μg/ml, respectively) at 37° C. with 5% CO2. Cells were then switched to serum free RPMI media overnight prior to drug treatment. Compounds were dissolved in 100% dimethylsulfoxide (DMSO) and diluted to the desired concentrations in serum free RPMI. Cells were treated with indicated drug concentrations (in triplicate per treatment point) for 24, 48, 72 hour. After treatment, cells were harvested by trypsinization and fixed in 70% ethanol. The fixed cells were then stained with propidium iodide (50 μg/ml) after treatment with RNase (5 μg/ml). The stained cells were analyzed for DNA content using FACSsort (Becton Dickinson). Cell cycle fractions were quantified with Cell Quest (Becton Dickinson) or ModFit LT (Verity Software House).

[2] = target: T1, hNav1.7 (Homo sapiens, UniProt Q15858); experiment: Fluorescent (FRET) based sodium channel assay, hNav1.7; format: cell-based; details: HEK293 stably transfected with hNav1.7, 20 μM veratridine, read-out: hNav 1.7 IC50
T1 construct: expressed in transfected cells; host or cells: HEK293
T1 sequence (Q15858 whole entry): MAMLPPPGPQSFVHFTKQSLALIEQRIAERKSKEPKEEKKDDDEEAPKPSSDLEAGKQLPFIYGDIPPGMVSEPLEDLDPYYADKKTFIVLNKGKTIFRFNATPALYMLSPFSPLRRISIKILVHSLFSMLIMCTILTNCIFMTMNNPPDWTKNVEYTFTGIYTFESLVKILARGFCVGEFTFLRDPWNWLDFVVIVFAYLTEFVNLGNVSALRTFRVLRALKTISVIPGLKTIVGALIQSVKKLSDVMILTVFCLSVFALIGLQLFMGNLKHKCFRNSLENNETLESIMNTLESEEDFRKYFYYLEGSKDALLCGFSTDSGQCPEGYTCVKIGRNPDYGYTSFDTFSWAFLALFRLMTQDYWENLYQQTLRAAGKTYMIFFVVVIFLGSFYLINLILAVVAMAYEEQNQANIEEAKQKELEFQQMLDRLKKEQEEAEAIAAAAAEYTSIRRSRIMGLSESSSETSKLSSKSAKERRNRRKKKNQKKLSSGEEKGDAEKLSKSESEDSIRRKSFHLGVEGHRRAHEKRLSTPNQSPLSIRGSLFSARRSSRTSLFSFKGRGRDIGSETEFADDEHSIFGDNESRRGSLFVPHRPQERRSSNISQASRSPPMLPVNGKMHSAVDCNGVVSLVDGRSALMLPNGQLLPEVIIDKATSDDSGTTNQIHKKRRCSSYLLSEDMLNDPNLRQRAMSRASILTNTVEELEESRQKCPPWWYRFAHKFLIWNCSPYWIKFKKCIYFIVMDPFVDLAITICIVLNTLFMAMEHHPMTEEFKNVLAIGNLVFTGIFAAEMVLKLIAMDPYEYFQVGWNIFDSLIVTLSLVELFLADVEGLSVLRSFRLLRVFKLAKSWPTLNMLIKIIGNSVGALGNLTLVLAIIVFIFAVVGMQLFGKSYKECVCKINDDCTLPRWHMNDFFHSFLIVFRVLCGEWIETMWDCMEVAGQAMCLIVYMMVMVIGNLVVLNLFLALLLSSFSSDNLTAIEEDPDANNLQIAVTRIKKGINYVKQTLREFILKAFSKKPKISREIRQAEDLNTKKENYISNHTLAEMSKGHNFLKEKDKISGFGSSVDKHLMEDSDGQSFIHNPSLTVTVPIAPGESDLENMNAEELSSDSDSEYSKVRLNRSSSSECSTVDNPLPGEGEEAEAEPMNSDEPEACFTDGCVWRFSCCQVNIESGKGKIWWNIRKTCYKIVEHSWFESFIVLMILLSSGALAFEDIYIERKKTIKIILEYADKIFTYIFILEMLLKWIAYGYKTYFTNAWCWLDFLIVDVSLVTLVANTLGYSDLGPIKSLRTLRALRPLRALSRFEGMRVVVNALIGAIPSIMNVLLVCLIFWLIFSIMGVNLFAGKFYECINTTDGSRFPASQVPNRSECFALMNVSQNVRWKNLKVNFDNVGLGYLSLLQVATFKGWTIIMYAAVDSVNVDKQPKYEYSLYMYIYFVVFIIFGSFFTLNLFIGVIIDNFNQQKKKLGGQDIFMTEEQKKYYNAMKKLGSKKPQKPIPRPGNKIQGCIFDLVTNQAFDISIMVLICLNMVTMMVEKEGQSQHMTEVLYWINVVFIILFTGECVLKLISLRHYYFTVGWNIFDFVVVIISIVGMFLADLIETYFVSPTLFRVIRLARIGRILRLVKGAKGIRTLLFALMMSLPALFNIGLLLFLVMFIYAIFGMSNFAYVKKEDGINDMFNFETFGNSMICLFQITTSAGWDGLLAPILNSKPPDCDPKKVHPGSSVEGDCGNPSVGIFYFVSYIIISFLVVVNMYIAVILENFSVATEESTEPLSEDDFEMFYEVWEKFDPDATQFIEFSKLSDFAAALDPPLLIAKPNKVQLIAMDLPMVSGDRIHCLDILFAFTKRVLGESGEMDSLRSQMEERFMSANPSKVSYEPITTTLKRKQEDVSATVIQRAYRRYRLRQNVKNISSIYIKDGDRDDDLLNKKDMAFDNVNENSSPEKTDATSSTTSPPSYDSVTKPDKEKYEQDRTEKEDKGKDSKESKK
Description: Two isoforms of the channel were examined: hNav1.5, a cardiac sodium channel associated with arrhythmias, and hNav1.7, an isoform found in the peripheral nervous system.
HEK293 cells stably transfected with either hNav1.5 or hNav1.7 were plated at approximately 11,000-20,000 cells/well in flat bottom, poly-D-lysine coated black-wall, clear-bottom, 384-well plates (Becton Dickinson, Bedford, Mass.), and incubated overnight at 37° C. in a 10% CO2 atmosphere in growth medium. Cells were washed with 0.03 mL of Dulbecco's phosphate buffered saline (D-PBS) containing calcium and magnesium. Cells were then incubated with 0.025 mL of a solution containing 10 μM CC2-DMPE and 0.02% pluronic acid in D-PBS with calcium and magnesium; supplemented with 10 mM glucose, and 10 mM Hepes-NaOH, pH 7.4. […] Afterwards, cells were incubated in the dark at 25° C. for 45 min with 0.025 mL of a solution containing 5 μM DiSBAC2(3) in VIPR-S, in the absence or presence of test compound. At the end of the incubation period, the plate was placed in a FLIPR TETRA instrument (MDS Analytical Technologies, Sunnyvale Calif.), illuminated at 390-420 nm, and fluorescence emissions were recorded at approximately 1 Hz at 460 and 580 nm. Following a 7 second baseline reading, 0.025 mL of VIPR-S containing 10 μM veratridine for Nav1.5 or 20 μM veratridine for Nav1.7 was added to each well, and the emissions of both dyes were recorded for an additional 33 seconds. The change in fluorescence resonance energy transfer (FRET) ratio (F/F0) was calculated as: F/F0=((A460/A580/(I460/I580) where A and I represent the readings after or before addition of veratridine, respectively, at the indicated wavelengths. For I, the readings from 2-5 seconds were averaged, and for A, readings from 3 seconds after the signal had reached a plateau level (usually within 30-40 s) were also averaged. Triplicate measurements were performed for each experimental condition and the data were averaged.

[3] = target: T2, human Nav channel isoform, Nav1.2 (Homo sapiens, UniProt Q99250); experiment: Patch clamp electrophysiology of compound 1 on Nav1.2 in HEK 293; format: cell-based; details: HEK293, HEK 293 Nav1.2, holding −60 mV to +10 mV, read-out: inhibition of Nav channel current
T2 construct: expressed in transfected cells; host or cells: HEK 293
T2 sequence (Q99250 whole entry, canonical isoform): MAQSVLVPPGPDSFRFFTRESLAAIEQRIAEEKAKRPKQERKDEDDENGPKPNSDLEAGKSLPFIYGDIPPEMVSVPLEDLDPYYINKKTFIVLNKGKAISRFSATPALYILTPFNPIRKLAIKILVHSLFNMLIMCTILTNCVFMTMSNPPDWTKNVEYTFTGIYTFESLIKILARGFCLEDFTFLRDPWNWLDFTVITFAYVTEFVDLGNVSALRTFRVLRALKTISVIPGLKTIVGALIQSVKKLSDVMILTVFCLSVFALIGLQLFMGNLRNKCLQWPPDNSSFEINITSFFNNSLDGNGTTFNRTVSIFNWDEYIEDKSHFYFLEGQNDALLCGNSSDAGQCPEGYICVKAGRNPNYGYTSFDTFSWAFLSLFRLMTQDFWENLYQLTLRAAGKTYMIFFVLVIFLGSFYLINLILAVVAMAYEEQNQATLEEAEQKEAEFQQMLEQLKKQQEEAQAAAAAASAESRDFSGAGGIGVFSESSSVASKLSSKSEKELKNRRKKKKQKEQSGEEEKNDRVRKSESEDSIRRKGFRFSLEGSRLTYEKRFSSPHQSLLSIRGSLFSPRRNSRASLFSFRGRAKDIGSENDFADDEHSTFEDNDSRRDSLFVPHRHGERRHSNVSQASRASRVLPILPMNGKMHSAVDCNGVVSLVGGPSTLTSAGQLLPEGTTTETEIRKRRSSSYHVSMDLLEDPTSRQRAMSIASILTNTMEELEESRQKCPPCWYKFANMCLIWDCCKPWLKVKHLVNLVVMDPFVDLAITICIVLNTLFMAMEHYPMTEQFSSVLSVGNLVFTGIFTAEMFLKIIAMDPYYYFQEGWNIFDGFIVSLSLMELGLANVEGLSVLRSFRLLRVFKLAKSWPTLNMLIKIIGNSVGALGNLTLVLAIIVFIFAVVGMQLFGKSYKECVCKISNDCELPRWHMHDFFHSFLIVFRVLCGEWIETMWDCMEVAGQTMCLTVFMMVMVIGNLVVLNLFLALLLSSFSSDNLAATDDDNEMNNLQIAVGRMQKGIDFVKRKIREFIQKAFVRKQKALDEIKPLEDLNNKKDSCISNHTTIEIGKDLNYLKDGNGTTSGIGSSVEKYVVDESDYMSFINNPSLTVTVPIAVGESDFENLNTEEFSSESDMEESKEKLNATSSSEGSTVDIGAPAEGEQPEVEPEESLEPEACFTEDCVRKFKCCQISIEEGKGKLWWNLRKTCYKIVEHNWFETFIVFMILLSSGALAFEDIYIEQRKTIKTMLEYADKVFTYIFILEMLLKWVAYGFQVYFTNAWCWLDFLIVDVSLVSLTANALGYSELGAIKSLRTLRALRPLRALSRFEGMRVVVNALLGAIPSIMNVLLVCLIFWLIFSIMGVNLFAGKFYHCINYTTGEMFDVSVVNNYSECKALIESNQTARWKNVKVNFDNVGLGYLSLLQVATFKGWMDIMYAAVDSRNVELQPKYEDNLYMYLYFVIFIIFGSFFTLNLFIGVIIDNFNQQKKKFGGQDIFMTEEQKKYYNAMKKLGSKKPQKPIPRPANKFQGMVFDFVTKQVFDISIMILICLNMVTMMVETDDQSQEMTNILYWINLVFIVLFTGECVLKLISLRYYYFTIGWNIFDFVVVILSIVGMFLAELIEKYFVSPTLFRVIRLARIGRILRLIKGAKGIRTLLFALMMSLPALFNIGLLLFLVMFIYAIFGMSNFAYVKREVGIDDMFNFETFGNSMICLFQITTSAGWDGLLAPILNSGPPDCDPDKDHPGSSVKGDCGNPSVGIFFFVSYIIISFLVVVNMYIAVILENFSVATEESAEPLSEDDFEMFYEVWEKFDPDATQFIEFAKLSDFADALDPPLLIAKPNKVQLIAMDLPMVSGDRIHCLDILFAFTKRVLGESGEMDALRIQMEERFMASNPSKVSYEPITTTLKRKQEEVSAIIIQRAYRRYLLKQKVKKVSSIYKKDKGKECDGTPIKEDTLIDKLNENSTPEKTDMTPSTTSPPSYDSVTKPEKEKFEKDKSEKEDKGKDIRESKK
Description: The effects of the racemic mixture and enantiomers of compound 1 were also examined by patch clamp electrophysiology on the human Nav channel isoform, Nav1.2, stably expressed in human embryonic kidney cells (HEK 293). Nav currents were elicited by step depolarizations from a holding potential of −60 mV to +10 mV for 25 ms at 15 s intervals. Sodium currents were record during a control drug free condition, after 5 mins of drug perfusion and following washout. […] The racemic mixture inhibited the sodium channel current by 31.9±2.9% (n=3) at 1 μM and by 87.0±3.1% (n=3) at 10 μM (FIG. 14). All drug effects were fully reversible on washout.
Sodium currents were recorded using the whole-cell configuration of the patch clamp recording technique with an Axopatch 200 amplifier (Axon Instruments, Foster City, Calif.). All voltage protocols were applied using pCLAMP 9 software (Axon, USA) and a Digidata 1322A (Axon, USA). Currents were amplified and low pass filtered (2 kHz) and sampled at 33 kHz. Borosilicate glass pipettes were pulled using a Brown-Flaming puller (model P87, Sutter Instruments Co, Novato, Calif.) and heat polished to produce electrode resistances of 1.5-3.0 MΩ when filled with the following electrode solution (in mM); CsCl 130, MgCl2 1, MgATP 5, BAPTA 10, HEPES 5 (pH adjusted to 7.4 with CsOH). Cells were plated on glass coverslips and superfused with solution containing the following composition; (in mM) NaCl 130, KCl 4, CaCl2 1, MgCl2 5, HEPES 5, and glucose 5 (pH adjusted to 7.4 with NaOH). Compounds were prepared as 100 mM stock solutions in dimethyl sulfoxide (DMSO) and diluted to desired concentration (1 μM or 10 μM) in perfusion solution. All experiments were performed at room temperature (20-22° C.). After establishing whole-cell, a minimum series resistance compensation of 75% was applied and cells were held at −100 mV for 5 minutes to account for equilibrium gating shifts. Sodium currents were evoked by stepping to +10 mV from a holding potential of −60 mV for 25 ms at 15 s intervals. After control recordings, test compounds were applied for five minutes to allow for bath equilibration. Tonic block was assessed by comparing peak sodium current in drug free conditions to peak current when drug was present. Data analysis was performed using Clampfit software (v9, Axon Instruments, CA, USA) and Origin (v6, Microcal Software, MA, USA).

[4] = target: T3, hERG potassium channels (Homo sapiens, UniProt Q12809); experiment: hERG binding assay ([35S]MK-499 displacement); details: [35S]MK-499, HEK-293 hERG membranes
T3 construct: expressed in transfected cells; host or cells: HEK-293 (membranes)
T3 sequence (Q12809 whole entry): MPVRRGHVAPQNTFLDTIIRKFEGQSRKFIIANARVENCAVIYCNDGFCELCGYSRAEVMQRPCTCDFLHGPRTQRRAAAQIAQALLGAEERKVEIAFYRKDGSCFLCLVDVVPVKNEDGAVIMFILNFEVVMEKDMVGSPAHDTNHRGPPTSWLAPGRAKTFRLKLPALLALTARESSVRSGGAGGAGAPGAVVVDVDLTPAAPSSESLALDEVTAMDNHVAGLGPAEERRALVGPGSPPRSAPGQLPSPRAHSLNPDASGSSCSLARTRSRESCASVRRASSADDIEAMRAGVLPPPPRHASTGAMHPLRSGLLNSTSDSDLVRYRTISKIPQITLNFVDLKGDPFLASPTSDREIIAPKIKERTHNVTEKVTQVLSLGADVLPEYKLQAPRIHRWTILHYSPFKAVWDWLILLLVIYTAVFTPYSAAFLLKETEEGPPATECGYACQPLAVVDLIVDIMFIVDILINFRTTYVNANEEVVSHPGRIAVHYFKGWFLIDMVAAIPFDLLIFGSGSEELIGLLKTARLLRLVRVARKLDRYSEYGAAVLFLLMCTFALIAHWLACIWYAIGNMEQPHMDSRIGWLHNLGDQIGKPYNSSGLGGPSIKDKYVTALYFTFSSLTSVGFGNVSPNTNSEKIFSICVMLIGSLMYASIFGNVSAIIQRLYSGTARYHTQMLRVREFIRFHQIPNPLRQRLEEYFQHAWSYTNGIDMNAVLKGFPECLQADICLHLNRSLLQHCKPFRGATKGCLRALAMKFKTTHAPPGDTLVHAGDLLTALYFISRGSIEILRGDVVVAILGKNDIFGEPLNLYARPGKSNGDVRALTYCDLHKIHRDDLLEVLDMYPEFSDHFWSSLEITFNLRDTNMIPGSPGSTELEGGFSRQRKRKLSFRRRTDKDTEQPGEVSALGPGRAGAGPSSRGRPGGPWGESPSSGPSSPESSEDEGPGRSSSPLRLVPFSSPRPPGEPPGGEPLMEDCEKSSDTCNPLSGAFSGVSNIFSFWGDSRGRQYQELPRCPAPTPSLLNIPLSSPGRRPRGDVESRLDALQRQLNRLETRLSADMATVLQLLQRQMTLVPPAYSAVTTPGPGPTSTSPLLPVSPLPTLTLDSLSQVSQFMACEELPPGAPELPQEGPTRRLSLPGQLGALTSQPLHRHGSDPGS
Source text: All four compounds were also counter-screened for human ether-a-go-go-related gene (hERG) activity against the radio-ligand MK-0499. Blockade of hERG K^+ channels is widely regarded as the predominant cause of drug-induced QT prolongation. (Aronov, A J Med Chem. 2006 Nov. 16; 49(23):6917-21).
MK-499, a potent hERG blocker, was used in a ligand binding assay to evaluate the binding of test compounds to hERG potassium channels as previously described (Wang, J et al. Am J Physiol Heart Circ Physiol, 2003, 284: H256-H267).^2 Test compounds were incubated with 0.05 nM of radiolabeled MK-499 ([35S]MK-499; specific Activity=1,279,010 μCi/μmol) in an assay buffer solution (70 mM NaCl, 60 mM KCl, 10 mM HEPES/NaOH (pH 7.4), 2 mM MgCl2, 1 mM CaCl2) also containing membranes isolated from HEK-293 cells stably expressing hERG channels in 96 well polypropylene deep-well assay plates at room temperature (25° C.) for >90 min. Assay plates were rinsed three time with buffer (130 mM NaCl, 10 mM HEPES/NaOH (pH 7.4), 2 mM MgCl2, 1 mM CaCl2) and the solution transferred to a Packard FilterMate Universal Harvester apparatus and filtered using PerkinElmer UniFilter-96 GF/C 96-well white microplates pre-soaked with 0.3% BSA (10 mL/L of 30% BSA). Plates were dried overnight at 37° C., or for 2 hrs at 56° C. The bottom of the plates were sealed and 0.025 mL of Microscint 0 was added to each well. The plates were top sealed and counted for 2 min/well in a Packard TopCount Scintillation counter. Test compounds were evaluated in a five point titration format using half-log steps from 0.3 μM to 30 μM. […] Less than 5% of the added radioactivity was retained on the filters. Assays were performed in triplicate.

[5] = tested on: human prostate tissue; experiment: Staining of human prostate paraffin embedded tissue slices; details: 100 μM
Description: The binding and localization of compound 26 in prostate and prostate cancer tissue was studied. Human prostate paraffin embedded tissue slices were stained with 100 μM of compound 26 and dansyl amine.

Structure (SMILES): CCCCCCC[C@](O)(C(N)=O)c1cccc(Cl)c1 [(R)-(−)-2-(3-chloro-phenyl)-2-hydroxy-nonanoic acid amide]
- cell death of CWR22rv-1 cells ([1]; 25 μM, after 24 h): induces cell death

Structure (SMILES): CCCCCCC[C@](O)(C(N)=O)c1cccc(Cl)c1 [Compound (R)-(−)-1, (R)-(−)-2-(3-chloro-phenyl)-2-hydroxy-nonanoic acid amide]
- cell death of CWR22rv-1 cells ([1]; 25 μM, after 24 h): approximately 25%
- cell death of CWR22rv-1 cells ([1]; after 72 h): 60%
- IC50 [2]: 1880 nM
- inhibition at 1 µM [3]: 67.4 ± 5.3%
- inhibition at 10 µM [3]: 94.3 ± 0.6%
- % inhibition for hERG assay, 0.3 μM [4]: 16%
- % inhibition for hERG assay, 1 μM [4]: 26%
- % inhibition for hERG assay, 3 μM [4]: 20%
- % inhibition for hERG assay, 10 μM [4]: 57%
- % inhibition for hERG assay, 30 μM [4]: 90%

Structure (SMILES): CCCCCCC[C@@](O)(C(N)=O)c1cccc(Cl)c1 [Compound (S)-(+)-1, (S)-(+)-2-(3-chloro-phenyl)-2-hydroxy-nonanoic acid amide]
- cell death of CWR22rv-1 cells ([1]; 25 μM, after 24 h): marginal effects
- cell death of CWR22rv-1 cells ([1]; after 72 h): 40%
- IC50 [2]: 2620 nM
- inhibition at 1 µM [3]: 34.9 ± 2.3%
- inhibition at 10 µM [3]: 91.5 ± 0.5%
- % inhibition for hERG assay, 0.3 μM [4]: 10%
- % inhibition for hERG assay, 1 μM [4]: 25%
- % inhibition for hERG assay, 3 μM [4]: 33%
- % inhibition for hERG assay, 10 μM [4]: 65%
- % inhibition for hERG assay, 30 μM [4]: 90%

Structure (SMILES): CN(C)c1cccc2c(S(N)(=O)=O)cccc12 [dansyl amine, reference compound]
- binding to human prostate tissue (microscopy) [5]: does not bind
